Counter-ions that a name gives are not always drawn.
Biological target: T1, Human thrombin (Homo sapiens, UniProt P00734)
T1 construct: purchased Haematologic Technologies Inc
Experiment: Thrombin protease activity inhibition, chromogenic substrate S-2238
Assay type: biochemical
Details: 3 nM thrombin, 125 μM S-2238, 10 min pre-incubation, RT
Procedure, shortened: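 Thrombin at 3 nM final in 0.05 M Tris pH 7.4, 0.015 M NaCl, 0.01% PEG-8000, at room temperature; compounds as ten-point three-fold dilutions.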

`FC(F)(F)C(c1ccccn1)N1CCC(c2cc(NCc3ccc(Cl)s3)[nH]n2)CC1` (stereo not shown) [Entry 221, N-[(5-chlorothiophen-2-yl)methyl]-3-1-[2,2,2-trifluoro-1-(pyridin-2-yl)ethyl]piperidin-4-yl-1H-pyrazol-5-amine] and `FC(F)(F)c1cccc(CN2CCC(c3cc(NCc4ccc(Cl)s4)[nH]n3)CC2)n1` [Entry 176, N-[(5-chlorothiophen-2-yl)methyl]-3-(1-[6-(trifluoromethyl)pyridin-2-yl]methylpiperidin-4-yl)-1H-pyrazol-5-amine] cannot be ordered by IC50: greater than 100000 nM for the first, greater than 100000 nM for the second.

`Clc1ccc(CNc2cc(C3CCCNCC3)n[nH]2)s1` (stereo not shown) [Entry 125, 3-(azepan-4-yl)-N-[(5-chlorothiophen-2-yl)methyl]-1H-pyrazol-5-amine] and `Clc1ccc(CNc2cc(C3CCOCC3)n[nH]2)s1` [Entry 182, N-[(5-chlorothiophen-2-yl)methyl]-3-(oxan-4-yl)-1H-pyrazol-5-amine] cannot be ordered by IC50: greater than 100000 nM for the first, greater than 100000 nM for the second.

`O=C(c1cccc2c1OCCO2)n1nc(C2CCNCC2)cc1NCc1ccc(Cl)s1` [Entry 143, N-[(5-chlorothiophen-2-yl)methyl]-1-(2,3-dihydro-1,4-benzodioxine-5-carbonyl)-3-(piperidin-4-yl)-1H-pyrazol-5-amine hydrochloride] and `COc1ccc(C(=O)n2nc(C3CCNCC3)cc2NCc2ccc(Cl)s2)c(OC)c1` [Entry 147, N-[(5-chlorothiophen-2-yl)methyl]-1-(2,4-dimethoxybenzoyl)-3-(piperidin-4-yl)-1H-pyrazol-5-amine] fall in the same range of IC50: 1000 to 10000 nM for the first, 1000 to 10000 nM for the second.

`CS(=O)(=O)N1CCCC1c1cc(NCc2ccc(Cl)s2)[nH]n1` (stereo not shown) [Entry 174, N-[(5-chlorothiophen-2-yl)methyl]-3-(1-methanesulfonylpyrrolidin-2-yl)-1H-pyrazol-5-amine] and `CS(=O)(=O)N1CC(c2cc(NCc3ccc(Cl)s3)[nH]n2)C1` [Entry 172, N-[(5-chlorothiophen-2-yl)methyl]-3-(1-methanesulfonylazetidin-3-yl)-1H-pyrazol-5-amine] cannot be ordered by IC50: greater than 100000 nM for the first, greater than 100000 nM for the second.

Compared with `COCC(C)(C)C(=O)n1nc(C2(C)CCCN(C(=O)OC(C)(C)C)C2)cc1NCc1ccc(Cl)s1` (stereo not shown) [Entry 284, tert-butyl 3-(5-[(5-chlorothiophen-2-yl)methyl]amino-1-(3-methoxy-2,2-dimethylpropanoyl)-1H-pyrazol-3-yl)-3-methylpiperidine-1-carboxylate], `COc1ccccc1C(=O)n1nc(C2(C)CCCN(C(=O)OC(C)(C)C)C2)cc1NCc1ccc(Cl)s1` (stereo not shown) [Entry 280, tert-butyl 3-(5-[(5-chlorothiophen-2-yl)methyl]amino-1-(2-methoxybenzoyl)-1H-pyrazol-3-yl)-3-methylpiperidine-1-carboxylate] is lower in IC50: 100 to 1000 nM for the first, less than 100 nM for the second. The second is the more potent here.

`Clc1ccc(CNc2cc(C3CCN(CCN4CCOCC4)CC3)n[nH]2)s1` [Entry 223, N-[(5-chlorothiophen-2-yl)methyl]-3-1-[2-(morpholin-4-yl)ethyl]piperidin-4-yl-1H-pyrazol-5-amine] and `Clc1ccc(CNc2cc(C3CCN(Cc4c[nH]cn4)CC3)n[nH]2)s1` [Entry 197, N-[(5-chlorothiophen-2-yl)methyl]-3-[1-(1H-imidazol-4-ylmethyl)piperidin-4-yl]-1H-pyrazol-5-amine] fall in the same range of IC50: 1000 to 10000 nM for the first, 1000 to 10000 nM for the second.

`CN(C)S(=O)(=O)N1CCC(c2cc(NCc3ccc(Cl)s3)n(C(=O)C(C)(C)CO)n2)CC1` [Entry 135, 4-(5-[(5-chlorothiophen-2-yl)methyl]amino-1-(3-hydroxy-2,2-dimethylpropanoyl)-1H-pyrazol-3-yl)-N,N-dimethylpiperidine-1-sulfonamide] and `CC(=O)N1CCC(c2cc(NCc3ccc(Cl)s3)n(C(=O)C(C)(C)C)n2)CC1` [Entry 94, 1-[3-(1-acetylpiperidin-4-yl)-5-[(5-chlorothiophen-2-yl)methyl]amino-1H-pyrazol-1-yl]-2,2-dimethylpropan-1-one] cannot be ordered by IC50: less than 100 nM for the first, less than 100 nM for the second.

First: COc1ccccc1C(=O)n1nc(C2(C)CCCN2C(=O)OC(C)(C)C)cc1NCc1ccc(Cl)s1 (stereo not shown) [Entry 272, tert-butyl 2-(5-[(5-chlorothiophen-2-yl)methyl]amino-1-(2-methoxybenzoyl)-1H-pyrazol-3-yl)-2-methylpyrrolidine-1-carboxylate]
Second: COc1ccccc1C(=O)n1nc(C2CCCO2)cc1NCc1ccc(Cl)s1 (stereo not shown) [Entry 156, N-[(5-chlorothiophen-2-yl)methyl]-1-(2-methoxybenzoyl)-3-(oxolan-2-yl)-1H-pyrazol-5-amine]
The IC50 of the first is higher: 1000 to 10000 nM for the first, less than 100 nM for the second. The second is the more potent here.

`COc1ccccc1C(=O)n1nc(C2CCCN2)cc1NCc1ccc(Cl)s1` (stereo not shown) [Entry 159, N-[(5-chlorothiophen-2-yl)methyl]-1-(2-methoxybenzoyl)-3-(pyrrolidin-2-yl)-1H-pyrazol-5-amine] and `O=C(c1ccsc1)n1nc(C2CCCNC2)cc1NCc1ccc(Cl)s1` (stereo not shown) [Entry 185, N-[(5-chlorothiophen-2-yl)methyl]-3-(piperidin-3-yl)-1-(thiophene-3-carbonyl)-1H-pyrazol-5-amine] fall in the same range of IC50: 100 to 1000 nM for the first, 100 to 1000 nM for the second.

First: C=CCOC(=O)N1CCN(C(=O)N2CCOCC2)CC1c1cc(NCc2ccc(Cl)s2)[nH]n1 (stereo not shown) [Entry 249, prop-2-en-1-yl 2-(5-[(5-chlorothiophen-2-yl)methyl]amino-1H-pyrazol-3-yl)-4-(morpholine-4-carbonyl)piperazine-1-carboxylate]
Second: C=CCOC(=O)N1CCN(S(C)(=O)=O)CC1c1cc(NCc2ccc(Cl)s2)n(C(=O)c2cscn2)n1 (stereo not shown) [Entry 242, prop-2-en-1-yl 2-(5-[(5-chlorothiophen-2-yl)methyl]amino-1-(1,3-thiazole-4-carbonyl)-1H-pyrazol-3-yl)-4-methanesulfonylpiperazine-1-carboxylate]
The IC50 of the first is higher: greater than 100000 nM for the first, 100 to 1000 nM for the second.

First: O=C(C1CCCCC1)n1nc(C2CCNCC2)cc1NCc1ccc(Cl)s1 [Entry 169, N-[(5-chlorothiophen-2-yl)methyl]-1-cyclohexanecarbonyl-3-(piperidin-4-yl)-1H-pyrazol-5-amine hydrochloride]
Second: CC1(C(=O)n2nc(C3(C)CCCNC3)cc2NCc2ccc(Cl)s2)CCOCC1 (stereo not shown) [Entry 162, N-[(5-chlorothiophen-2-yl)methyl]-1-(4-methyloxane-4-carbonyl)-3-(3-methylpiperidin-3-yl)-1H-pyrazol-5-amine]
The IC50 of the first is higher: greater than 100000 nM for the first, 1000 to 10000 nM for the second. The second is the more potent here.

`CC(C)(C)OC(=O)N1CCC(c2cc(NCc3ccc(Cl)s3)n(C(=O)c3ccsc3)n2)CC1` [Entry 301, tert-butyl 4-(5-[(5-chlorothiophen-2-yl)methyl]amino-1-(thiophene-3-carbonyl)-1H-pyrazol-3-yl)piperidine-1-carboxylate] and `CC(C)(C)C(=O)N1CCC(c2cc(NCc3ccc(Cl)s3)n(C(=O)c3ccsc3)n2)CC1` [Entry 101, 1-[4-(5-[(5-chlorothiophen-2-yl)methyl]amino-1-(thiophene-3-carbonyl)-1H-pyrazol-3-yl)piperidin-1-yl]-2,2-dimethylpropan-1-one] cannot be ordered by IC50: less than 100 nM for the first, less than 100 nM for the second.

`C=CCOC(=O)N1CCC(c2cc(NCc3ccc(Cl)s3)n(C(=O)C(C)(C)C)n2)CC1` [Entry 262, prop-2-en-1-yl 4-(5-[(5-chlorothiophen-2-yl)methyl]amino-1-(2,2-dimethylpropanoyl)-1H-pyrazol-3-yl)piperidine-1-carboxylate] and `C=CCOC(=O)N1CCC(c2nn(C(=O)C(C)(C)C)c(NCc3ccc(Cl)s3)c2C)CC1` [Entry 264, prop-2-en-1-yl 4-(5-[(5-chlorothiophen-2-yl)methyl]amino-1-(2,2-dimethylpropanoyl)-4-methyl-1H-pyrazol-3-yl)piperidine-1-carboxylate] cannot be ordered by IC50: less than 100 nM for the first, less than 100 nM for the second.

`CC(C)(C)OC(=O)N1CCC(c2cc(NCc3ccc(Cl)s3)[nH]n2)CC1` [Entry 302, tert-butyl 4-(5-[(5-chlorothiophen-2-yl)methyl]amino-1H-pyrazol-3-yl)piperidine-1-carboxylate] and `Cc1c(C2CCN(C(=O)c3cscn3)CC2)n[nH]c1NCc1ccc(Cl)s1` [Entry 236, N-[(5-chlorothiophen-2-yl)methyl]-4-methyl-3-[1-(1,3-thiazole-4-carbonyl)piperidin-4-yl]-1H-pyrazol-5-amine] cannot be ordered by IC50: greater than 100000 nM for the first, greater than 100000 nM for the second.

First: C=CCOC(=O)N1C2CCC1CC(c1cc(NCc3ccc(Cl)s3)n(C(=O)C(C)(C)C)n1)C2 (stereo not shown) [Entry 254, prop-2-en-1-yl 3-(5-[(5-chlorothiophen-2-yl)methyl]amino-1-(2,2-dimethylpropanoyl)-1H-pyrazol-3-yl)-8-azabicyclo[3.2.1]octane-8-carboxylate]
Second: CC(C)(C)C(=O)N1CC(c2cc(NCc3ccc(Cl)s3)n(C(=O)C(C)(C)C)n2)C1 [Entry 96, 1-[3-(5-[(5-chlorothiophen-2-yl)methyl]amino-1-(2,2-dimethylpropanoyl)-1H-pyrazol-3-yl)azetidin-1-yl]-2,2-dimethylpropan-1-one]
The IC50 of the first is lower: less than 100 nM for the first, 100 to 1000 nM for the second. The first is the more potent here.

First: CC1(c2cc(NCc3ccc(Cl)s3)n(C(=O)c3ccsc3)n2)CCCNC1 (stereo not shown) [Entry 178, N-[(5-chlorothiophen-2-yl)methyl]-3-(3-methylpiperidin-3-yl)-1-(thiophene-3-carbonyl)-1H-pyrazol-5-amine]
Second: CC(C)(C)OC(=O)N1CCC(C)(c2cc(NCc3ccc(Cl)s3)n(C(=O)c3ccsc3)n2)CC1 [Entry 300, tert-butyl 4-(5-[(5-chlorothiophen-2-yl)methyl]amino-1-(thiophene-3-carbonyl)-1H-pyrazol-3-yl)-4-methylpiperidine-1-carboxylate]
The IC50 of the first is higher: 100 to 1000 nM for the first, less than 100 nM for the second.

`C=CCOC(=O)N1CCCC1c1cc(NCc2ccc(Cl)s2)n(C(=O)c2cscn2)n1` (stereo not shown) [Entry 243, prop-2-en-1-yl 2-(5-[(5-chlorothiophen-2-yl)methyl]amino-1-(1,3-thiazole-4-carbonyl)-1H-pyrazol-3-yl)pyrrolidine-1-carboxylate] and `CC(C)(C)OC(=O)N1CCC(C)(c2cc(NCc3ccc(Cl)s3)n(C(=O)C3(C)CCOCC3)n2)CC1` [Entry 299, tert-butyl 4-(5-[(5-chlorothiophen-2-yl)methyl]amino-1-(4-methyloxane-4-carbonyl)-1H-pyrazol-3-yl)-4-methylpiperidine-1-carboxylate] cannot be ordered by IC50: less than 100 nM for the first, less than 100 nM for the second.
